Test results taken from US20120010272A1, “RNA Interference Mediated Inhibition of Apoptosis Signal-Regulating Kinase 1 (ASK1) Gene Expression Using Short Interfering Nucleic Acid (siNA)” (Merck Sharp & Dohme Corp., priority 2009, published 2012).
[invAb] = inverted abasic unit; d = 2'-deoxy (DNA); m = 2'-O-methyl; r = 2'-OH (RNA); f = 2'-fluoro

Legend:
Type in all cases: cell-based
ASK1 mRNA [1] = assay: ASK1 mRNA knock-down by siNA in human A549 cells (RNAiMax transfection, Taqman RT-PCR); settings: for % KD Human: 10 nM siNA, 24 hrs post-transfection, vs non-targeting control, GAPDH-normalized, mean ± S.D.; for % KD Human / % KD ASK-1 10 nM: two experiments; for % KD ASK-1 mRNA at 10 nM: mean ± S.D. (Table 5); for % KD ASK-1 10 nM: mean ± standard deviation (Table 6)
Method: A549 (human; ATCC cat #CCL-185): Cells were cultured at 37° C. in the presence of 5% CO2 and grown in Ham's F12K medium with 2 mM L-glutamine adjusted to contain 1.5 g/L sodium bicarbonate and supplemented with fetal bovine serum at a final concentration of 10%, 100 μg/mL of streptomycin, and 100 U/mL penicillin.
(§1) Cells were plated in all wells of a tissue-culture treated, 96-well plate at a final count of 5000 cells/well (A549 cell line) and 3,500 cells/well (Hepal-6 cell line) in 100 μL of the appropriate culture media. The cells were cultured for 24 hours after plating at 37° C. in the presence of 5% CO2.
(§2) After 24 hours, complexes containing siNA and RNAiMax were created as follows: A solution of RNAiMax diluted 33-fold in OPTI-MEM was prepared. In parallel, solutions of the siNAs for testing were prepared to a final concentration of 120 nM in OPTI-MEM. After incubation of RNAiMax/OPTI-MEM solution at room temperature for 5 min, an equal volume of the siRNA solution and the RNAiMax solution were added together for each of the siNAs.
(§3) This solution was incubated at room temperature for 20 minutes. After incubation, 20 uL of the solution was added to each of the relevant wells. The final concentration of siNA in each well was 10 nM and the final volume of RNAiMax in each well was 0.3 ul.
(§4) The time of incubation with the RNAiMax-siNA complexes was 24 hours and there was no change in media between transfection and harvesting, unless otherwise indicated.
(§5) RNA was extracted from a 96-well plate using the TaqMan® Gene Expression Cells-to-CT™ Kit (Cat #4399002) with a modified protocol. Briefly, a 60 uL (1 plate) or 110 uL (2 plates) of the Lysis Solution with DNase I was dispensed into each well of the Lysis Buffer Plate (twin.tec full skirt plate). The lysis buffer and stop plates were stored at 4° C. until the cells were washed.
(§6) The plate was spun at 1100 rpm for 5 minutes. The culture medium was aspirated and discarded from the wells of the culture plate. The lysis was performed automatically using a BioMek FX instrument and method. After the Biomek method was completed, the lysis plate was incubated for 2 min. at room temperature. The lysis plate can be stored for 2 hours at 4° C., or at −20° C. or −80° C. for two months.
(§7) Each well of the reverse transcription plate required 10 uL of 2× reverse transcriptase Buffer, 1 uL of 20× reverse transcription enzyme and 2 uL of nuclease-free water. The reverse transcription master mix was prepared by mixing 2× reverse transcription buffer, 20× reverse transcription enzyme mix, and nuclease-free water. 13 uL of the reverse transcription master mix was dispensed into each well of the reverse transcription plate (semi-skirted). A separate reverse transcription plate was prepared for each cell plate. The plate was loaded onto a Biomek NX or Biomek FX Dual-96 and the Biomek method was run. The program is programmed to automatically added 7 uL of lysate from the cell lysis procedure described above into each well of the reverse transcription plate. The plate is sealed and spun on a centrifuge (1000 rpm for 30 seconds) to settle the contents to the bottom of the reverse transcription plate. The plate is placed in a thermocycler at 37° C. for 60 min, 95° C. for 5 min, and 4° C. until the plate is removed from the thermocycler. Upon removal, if not used immediately, the plate was frozen at −20° C.
(§8) A series of probes and primers were used to detect the various mRNA transcripts of the genes of ASK1, ASK2, and GAPDH in human cell lines and ASK1 and GAPDH in mouse cell lines. All Taqman probes and primers for the experiments were supplied as pre-validated sets by ABI (see Table 2).
(§9) The assays were performed on an ABI 7900 instrument, according to the manufacturer's instructions. A TaqMan Gene Expression Master Mix (provided in the Cells-to-CT™, Applied Biosystems, Cat #4399002) was used. […]

ASK1 mRNA [2] = assay: ASK1 mRNA knock-down by siNA in mouse Hepa1-6 cells (RNAiMax transfection, Taqman RT-PCR); settings: 10 nM siNA, 24 hrs post-transfection, vs non-targeting control, GAPDH-normalized, mean ± S.D., two experiments
Method: Hepal-6 (murine; ATCC cat #CRL-1830): Cells were cultured at 37° C. in the presence of 5% CO2 and grown in Dulbecco's modified Eagle's medium (DMEM) with 4 mM L-glutamine adjusted to contain 1.5 g/L sodium bicarbonate and 4.5 g/L glucose and supplemented with 10% of fetal bovine serum, 100 μg/mL of streptomycin, and 100 U/mL penicillin.
as §1, §2, §3, §4, §5, §6, §7, §8, §9

[3] = system: mRNA transcript of human ASK2; assay: ASK2 specificity screen: effect of ASK1 siNAs on human ASK2 mRNA in A549 cells; settings: 1 nM siNA, three independent experiments, mean ± standard deviation
Method: A549 cells were plated in all wells of a tissue-culture treated, 96-well plate at a final count of 5,000 cells/well in 100 μL of appropriate culture media. Cells were cultured for 24 hours after plating at 37° C. in the presence of 5% CO2.
as §2, with “follows.” for “follows:”, “siRNAs” for “siNAs”, “12” for “120”, “siNA” for “siRNA”, “siNAs. […] This solution was incubated at room temperature for 20 minutes. After incubation, 20 uL of the solution was added to each of the relevant wells. The final concentration of siNA in each well was 1 nM and the final volume of RNAiMax in each well was 0.3 uL. The time of incubation with the RNAiMax-siNA complexes was 24 hours.” for “siNAs.”
as §5, §6, §7, §8
The assays were performed on an ABI 7900 instrument, according to the manufacturer's instructions. A TaqMan Gene Expression Master Mix (provided in the Cells-to-CT™, Applied Biosystems, Cat #4399002) was used. The PCR reactions were carried out at 50° C. for 2 min, 95° C. for 10 min followed by 40 cycles at 95° C. for 15 secs and 60° C. for 1 min.
The expression level of the gene of interest and % knock-down was calculated using Comparative Ct method:
ΔΔCt=ΔCt(Target siRNA)−ΔCt(NTC)
Relative expression level=2^−ΔΔCt
The non-targeting control siRNA was, unless otherwise indicated, chosen as the value against which to calculate the % knock-down, because it is the most relevant control.
The specificity of these siNAs was also assessed. […]

ASK1 mRNA [4] = assay: ASK1 mRNA knock-down by siNA in human A549 cells (RNAiMax transfection, Taqman RT-PCR); settings: 12 concentrations 0.083 fM to 30 nM, mean ± S.D.

Row | Substance | % KD Human (ASK1 mRNA [1]) [%] | % KD ASK-1 mRNA at 10 nM (ASK1 mRNA [1]) [%] | % KD ASK-1 10 nM (ASK1 mRNA [1]) [%] | % KD Mouse (ASK1 mRNA [2]) [%] | % KD ASK-2 1 nM [3] [%] | IC50 (ASK1 mRNA [4]) [pM]
1 | 25387-DC: siNA duplex, sense B cAccAGAAAuAAuAGAuAA TTB, antisense UUAucuAuuAuuucuGGuGUU (SEQ ID NO: 55/56), human ASK1 target site 2901 (sense CACCAGAAAUAAUAGAUAATT; antisense UUAUCUAUUAUUUCUGGUGUU; chemistry not fully specified) | 87 ± 2 | 87 ± 2 | 87 ± 2 | −17 ± 11 | 4 ± 11 | 20 ± 3
2 | 25385-DC: siNA duplex, sense B GGAAGGcuAucAuuGAcuu TTB, antisense AAGucAAuGAuAGccuuccUU (SEQ ID NO: 51/52), human ASK1 target site 4449 (sense GGAAGGCUAUCAUUGACUUTT; antisense AAGUCAAUGAUAGCCUUCCUU; chemistry not fully specified) | 90 ± 0 | 90 ± 0 | 90 ± 0 | 75 ± 15 | 2 ± 11 | 10 ± 3
3 | 25389-DC: siNA duplex, sense B GAGAcAAuuuuAAuAuAuA TTB, antisense UAUAuAuuAAAAuuGucucUU (SEQ ID NO: 59/60), human ASK1 target site 1907 (sense GAGACAAUUUUAAUAUAUATT; antisense UAUAUAUUAAAAUUGUCUCUU; chemistry not fully specified) | 93 ± 4 | 93 ± 4 | 93 ± 4 | −4 ± 4 | 5 ± 4 | 3 ± 0.5
4 | 25399-DC: siNA duplex, sense B ccAAcAcuAcAGucAGGAA TTB, antisense UUCcuGAcuGuAGuGuuGGUU (SEQ ID NO: 79/80), human ASK1 target site 1640 (sense CCAACACUACAGUCAGGAATT; antisense UUCCUGACUGUAGUGUUGGUU; sense: DNA at AGT, 2'-fluoro at CU, [invAb] at 5' end, 3' end, backbone not given here; antisense: sugars from the 5' end rrrffmmffmfmmfmffmmmm, backbone not given here) | 81 ± 2 | 81 ± 2 | 81 ± 2 | 62 ± 0 | 9 ± 8 | 150 ± 43
5 | 25388-DC: siNA duplex, sense B GGuAGAGAcuuuAGAAAAA TTB, antisense UUUuucuAAAGucucuAccUU (SEQ ID NO: 57/58), human ASK1 target site 1360 (sense GGUAGAGACUUUAGAAAAATT; antisense UUUUUCUAAAGUCUCUACCUU; sense: sugars from the 5' end d2 f1 d5 f4 d9, [invAb] at 5' end, 3' end, backbone not given here; antisense: sugars from the 5' end rrrffffmmmmfffffmffmm, backbone not given here) | 89 ± 4 | – | – | 32 ± 5 | – | –
6 | 25377-DC: siNA duplex, sense B GGAAGAccAAGAcAAAAuu TTB, antisense AAUuuuGucuuGGucuuccUU (SEQ ID NO: 35/36), human ASK1 target site 3538 (sense GGAAGACCAAGACAAAAUUTT; antisense AAUUUUGUCUUGGUCUUCCUU; chemistry not fully specified) | 80 ± 3 | – | – | 10 ± 2 | – | –
7 | 25401-DC: siNA duplex, sense B uccuGGucGAGGccAcAAA TTB, antisense UUUGuGGccucGAccAGGAUU (SEQ ID NO: 83/84), human ASK1 target site 1995 (sense UCCUGGUCGAGGCCACAAATT; antisense UUUGUGGCCUCGACCAGGAUU; sense: DNA at AGT, 2'-fluoro at CU, [invAb] at 5' end, 3' end, backbone not given here; antisense: sugars from the 5' end rrrmfmmffffmmffmmmmmm, backbone not given here) | 10 ± 16 | – | – | 21 ± 0 | – | –
8 | 25383-DC: siNA duplex, sense B cuGcuGAucAAGAAGAcuu TTB, antisense AAGUCuucuuGAucAGcAGUU (SEQ ID NO: 47/48), human ASK1 target site 3918 (sense CUGCUGAUCAAGAAGACUUTT; antisense AAGUCUUCUUGAUCAGCAGUU; chemistry not fully specified) | 68 ± 7 | – | – | 1 ± 3 | – | –
9 | 25378-DC: siNA duplex, sense B cGGAAGAccAAGAcAAAAu TTB, antisense AUUuuGucuuGGucuuccGUU (SEQ ID NO: 37/38), human ASK1 target site 3537 (sense CGGAAGACCAAGACAAAAUTT; antisense AUUUUGUCUUGGUCUUCCGUU; chemistry not fully specified) | 79 ± 5 | – | – | 34 ± 2 | – | –
10 | 25375-DC: siNA duplex, sense B GGAuGAAAAuAGAAAccAA TTB, antisense UUGGuuucuAuuuucAuccUU (SEQ ID NO: 31/32), human ASK1 target site 4101 (sense GGAUGAAAAUAGAAACCAATT; antisense UUGGUUUCUAUUUUCAUCCUU; chemistry not fully specified) | 76 ± 6 | – | – | 6 ± 13 | – | –
